Results taken from patent publication US20190070165A1, “N-HYDROXYISOQUINOLINEDIONE INHIBITORS OF HBV REPLICATION” (Saint Louis University, priority 2016, published 2019).
Like-named read-outs stand apart in the source and are kept apart here.

Legend:
HBV replication = HBV replication inhibition assay in HepDES19 cells (strand-preferential q-PCR); type: cell-based, Hepatitis B virus; conditions: for EC50: Hepatitis B virus, HepDES19, Table 2, qualitative suppression of + and − DNA strands, read-out: EC50 (class symbols); for HBV replication inhibition (qualitative): Table 3, qualitative screen at 20 μM; for HBV replication inhibition / activity: HepDES19 cells
Experimental: HBV replication assay. […] Cells were seeded into 6-well plates and incubated in DMEM/F12, 10% fetal bovine serum (FBS), 1% penicillin/streptomycin (P/S) with 1 μg/mL tetracycline. Tetracycline was withdrawn after 24 hours. The test compound was applied to duplicate wells 48 hours later in medium containing a final DMSO concentration of 1%, and medium containing the compound was refreshed daily for the following two days. Cells were harvested and non-encapsidated nucleic acids were digested with micrococcal nuclease (New England Biolabs). HBV DNA was purified from capsids using QIAamp Cador Pathogen Mini Kit (Qiagen) with proteinase K incubation overnight at 37° C. TaqMan PCR was performed for 40 cycles at an annealing temperature of 60° C.
Thirty-nine HID, HPD, flutimide, and related POH compounds (Structures shown in FIG. 3) were screened for their ability to inhibit HBV replication in HepDES19 cells. […] Inhibition was calculated as the amount of plus-polarity DNA relative to the DMSO treated controls.
Briefly, HepDES19 were seeded in 12-well plates at 2×10^5 cells per well in the absence of tetracycline. Test compound was applied to cells 48 hours after removal of tetracycline. […] HBV DNA was purified from capsids using a QIAamp pathogen minikit with proteinase K digestion extended to overnight at 37° C. TaqMan PCR was performed for 40 cycles with an annealing temperature of 60° C.

HBV RNaseH = HBV RNaseH (Hepatitis B virus genotype D subtype ayw, UniProt P03156); conditions: for Inhibition of HBV RNaseH, Oligonucleotide directed cleavage assay: Table 3, compounds at 100, 60 and 20 μM, compounds 1-91 and 138-140 previously reported (Cai et al., 2014)
HSV-1 = HSV-1 replication inhibition assay in Vero cells; type: cell-based, herpes simplex virus 1; conditions: for log reduction at 5 µM: read-out: HSV-1 suppression (log10 at 5 μM), class symbol
Experimental: Thirty-seven compounds were counter-screened for efficacy against HSV-1 to evaluate specificity of the inhibitors and to help determine if the efficacy against HBV replication may be due to an unsuspected indirect effect on the cells. Vero cells infected with HSV-1 at an MOI of 0.1 were treated with 5 μM of compound for 24 hours. Inhibition was calculated as log 10 suppression of plaque forming units compared with DMSO vehicle control.
Vero cells were maintained DMEM supplemented with 3% newborn calf serum, 3% bovine growth serum, 2 mM L-glutamine, and P/S. Test compounds were applied to the cells in the presence of 0.05% DMSO. The herpes simplex virus 1 (HSV-1) strain used for screening was a de-identified clinical isolate from the Saint Louis University Hospital passaged once in culture.
Compounds and virus were diluted in phosphate buffered saline (PBS) containing 2% newborn calf serum and 2 mM L-glutamine so that the final concentration of compound was 5 μM. The cells were incubated at 37° C. for 1 hour with the virus containing inoculum, then the inoculum was removed and the wells were washed once in PBS. Compound diluted to 5 μM in supplemented DMEM was added and cells were incubated at 37° C. for an additional 23 hours. The plates were then microscopically inspected for cytopathic effect (CPE) or toxicity and then frozen at −80° C. Virus titers for wells with limited CPE compared to DMSO vehicle-treated controls were then determined by plaque assay on Vero cells. Each experiment was repeated at least once.

human RNaseH1 = target: T1, human RNaseH1 (Homo sapiens, UniProt O60930); test: Oligonucleotide-directed RNA cleavage assay, human RNaseH1; type: biochemical; conditions: for inhibition of huRNaseH1: compounds at 100, 60 and 20 μM
T1 construct: made in house; host or cells: E. coli
T1 sequence (O60930 1-286): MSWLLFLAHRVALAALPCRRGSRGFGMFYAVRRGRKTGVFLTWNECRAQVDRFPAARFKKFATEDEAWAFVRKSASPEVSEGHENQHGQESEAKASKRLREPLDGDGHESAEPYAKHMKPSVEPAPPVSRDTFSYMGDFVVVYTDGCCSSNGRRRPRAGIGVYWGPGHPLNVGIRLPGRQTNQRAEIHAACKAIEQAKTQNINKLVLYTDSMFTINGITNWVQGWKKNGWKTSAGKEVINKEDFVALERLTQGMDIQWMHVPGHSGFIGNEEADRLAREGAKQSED
Excerpt: RNaseH expression and purification.
Oligonucleotide-directed RNA cleavage assay.

[1] = Human alphaherpesvirus 1, 24 h, 5 μM, Vero cells

HBV RNaseH, sequence (P03156 671-832): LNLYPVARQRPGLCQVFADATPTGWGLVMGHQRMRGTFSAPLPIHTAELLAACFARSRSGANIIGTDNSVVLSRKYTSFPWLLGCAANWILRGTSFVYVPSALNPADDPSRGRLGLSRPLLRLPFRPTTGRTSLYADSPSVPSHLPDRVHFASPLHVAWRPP

Structure (SMILES): CCCNC(=O)C1C(=O)N(O)C(=O)c2ccccc21 (stereo not shown) [Compound 82]
- EC50 (HBV replication): > 20 µM
- HBV replication inhibition (qualitative) (HBV replication): − (No inhibition detected at 20 μM)
- HBV RNaseH (HBV RNaseH; Table 1, qualitative inhibition in biochemical assay): +/−
- Inhibition of HBV RNaseH, Oligonucleotide directed cleavage assay (HBV RNaseH): − (No inhibition detected at 100 μM)
- log reduction at 5 µM (HSV-1; [1]): < 1
- Human RNaseH1 (human RNaseH1; Table 1, qualitative inhibition): +++ (detectable inhibition at 10 μM)

Structure (SMILES): O=C1c2cccc3cccc(c23)C(=O)N1O [Compound 45]
- HBV replication inhibition (qualitative) (HBV replication): − (No inhibition detected at 20 μM)
- Inhibition of HBV RNaseH, Oligonucleotide directed cleavage assay (HBV RNaseH): − (No inhibition detected at 100 μM)
- log reduction at 5 µM (HSV-1; [1]): < 1

Structure (SMILES): Cc1cc(C2CCCCC2)n(O)c(=O)c1 [Compound 41, Ciclopirox, reference compound]
- HBV replication inhibition (qualitative) (HBV replication): − (No inhibition detected at 20 μM)
- Inhibition of HBV RNaseH, Oligonucleotide directed cleavage assay (HBV RNaseH): − (No inhibition detected at 100 μM)
- HSV-1 suppression (log10 at 5 μM) (HSV-1; 5 μM, 24 hours, Vero cells, MOI 0.1, plaque forming units vs DMSO): 5.0 log10

Structure (SMILES): Cc1cc(C)n(O)c(=O)c1C#N [Compound 44]
- HBV replication inhibition (qualitative) (HBV replication): − (No inhibition detected at 20 μM)
- Inhibition of HBV RNaseH, Oligonucleotide directed cleavage assay (HBV RNaseH): − (No inhibition detected at 100 μM)
- log reduction at 5 µM (HSV-1; [1]): < 1

Structure (SMILES): CC1=C(C#N)C(=O)NC(=O)C1Cc1ccc(-c2ccccc2)o1 (stereo not shown) [Compound 140]
- HBV replication inhibition (qualitative) (HBV replication): − (No inhibition detected at 20 μM)
- Inhibition of HBV RNaseH, Oligonucleotide directed cleavage assay (HBV RNaseH): − (No inhibition detected at 100 μM)
- log reduction at 5 µM (HSV-1; [1]): < 1

Structure (SMILES): Oc1nc2ccccc2nc1O [Compound 198, 2,3-dihydroxy-quinoxaline]
- HBV replication inhibition (qualitative) (HBV replication): − (No inhibition detected at 20 μM)
- Inhibition of HBV RNaseH, Oligonucleotide directed cleavage assay (HBV RNaseH): − (No inhibition detected at 100 μM)
- log reduction at 5 µM (HSV-1; [1]): < 1

Structure (SMILES): O=C1CCC(=O)N1O [Compound 139]
- HBV replication inhibition / activity (HBV replication): inactive
- HBV replication inhibition (qualitative) (HBV replication): − (No inhibition detected at 20 μM)
- Inhibition of HBV RNaseH, Oligonucleotide directed cleavage assay (HBV RNaseH): − (No inhibition detected at 100 μM)

Structure (SMILES): O=C1Cn2c(cc3cc(Cl)ccc32)C(=O)N1O [Compound 237]
- HBV replication inhibition (qualitative) (HBV replication): − (No inhibition detected at 20 μM)
- Inhibition of HBV RNaseH, Oligonucleotide directed cleavage assay (HBV RNaseH): − (No inhibition detected at 100 μM)
- log reduction at 5 µM (HSV-1; [1]): < 1

Structure (SMILES): O=C1C=CC2C=CC=CC2N1O (stereo not shown) [Compound 43]
- HBV replication inhibition (qualitative) (HBV replication): − (No inhibition detected at 20 μM)
- Inhibition of HBV RNaseH, Oligonucleotide directed cleavage assay (HBV RNaseH): − (No inhibition detected at 100 μM)
- log reduction at 5 µM (HSV-1; [1]): < 1

Structure (SMILES): CCOC(=O)C1=CC2C=CC=CC2N(O)C1=O (stereo not shown) [Compound 42]
- HBV replication inhibition (qualitative) (HBV replication): − (No inhibition detected at 20 μM)
- Inhibition of HBV RNaseH, Oligonucleotide directed cleavage assay (HBV RNaseH): − (No inhibition detected at 100 μM)
- log reduction at 5 µM (HSV-1; [1]): < 1

Structure (SMILES): O=C(O)c1nc(Cl)c2ccccc2c1O [Compound 132]
- HBV replication inhibition (qualitative) (HBV replication): − (No inhibition detected at 20 μM)
- Inhibition of HBV RNaseH, Oligonucleotide directed cleavage assay (HBV RNaseH): − (No inhibition detected at 100 μM)

Structure (SMILES): O=C1c2ccc3ccccc3c2C(=O)N1O [Compound 128]
- Inhibition of HBV RNaseH, Oligonucleotide directed cleavage assay (HBV RNaseH): − (No inhibition detected at 100 μM)
- log reduction at 5 µM (HSV-1; [1]): < 1

Structure (SMILES): O=C1C(=O)N(O)C2CCCCC2N1O (stereo not shown) [Compound 217]
- HBV replication inhibition (qualitative) (HBV replication): − (No inhibition detected at 20 μM)
- Inhibition of HBV RNaseH, Oligonucleotide directed cleavage assay (HBV RNaseH): − (No inhibition detected at 100 μM)
- log reduction at 5 µM (HSV-1; Human alphaherpesvirus 1, Vero, 24 h): < 1
- inhibition of huRNaseH1 (human RNaseH1): detectably inhibited

Structure (SMILES): NN1C(=O)Cc2ccccc2C1=O [Compound 204]
- HBV replication inhibition / activity (HBV replication): inactive
- HBV replication inhibition (qualitative) (HBV replication): − (No inhibition detected at 20 μM)
- Inhibition of HBV RNaseH, Oligonucleotide directed cleavage assay (HBV RNaseH): − (No inhibition detected at 100 μM)
- log reduction at 5 µM (HSV-1; [1]): < 1
- inhibition of huRNaseH1 (human RNaseH1): detectably inhibited

Structure (SMILES): Nc1cccc(O)n1 [Compound 206]
- HBV replication inhibition (qualitative) (HBV replication): − (No inhibition detected at 20 μM)
- Inhibition of HBV RNaseH, Oligonucleotide directed cleavage assay (HBV RNaseH): − (No inhibition detected at 100 μM)
- log reduction at 5 µM (HSV-1; [1]): < 1
- inhibition of huRNaseH1 (human RNaseH1): detectably inhibited

Structure (SMILES): O=C1Cn2c(cc3cc(O)ccc32)C(=O)N1O [Compound 240]
- HBV replication inhibition (qualitative) (HBV replication): − (No inhibition detected at 20 μM)
- Inhibition of HBV RNaseH, Oligonucleotide directed cleavage assay (HBV RNaseH): − (No inhibition detected at 100 μM)
- log reduction at 5 µM (HSV-1; [1]): < 1
- inhibition of huRNaseH1 (human RNaseH1): detectably inhibited

Structure (SMILES): O=C1Cn2c(cc3ccccc32)C(=O)N1 [Compound 239]
- HBV replication inhibition (qualitative) (HBV replication): − (No inhibition detected at 20 μM)
- Inhibition of HBV RNaseH, Oligonucleotide directed cleavage assay (HBV RNaseH): − (No inhibition detected at 100 μM)
- log reduction at 5 µM (HSV-1; [1]): < 1

Structure (SMILES): CC1CC(=O)N(O)C(CC(C)CC(C)(C)C)C1 (stereo not shown) [Compound 191, Piroctone olamine, reference compound]
- HBV replication inhibition (qualitative) (HBV replication): − (No inhibition detected at 20 μM)
- Inhibition of HBV RNaseH, Oligonucleotide directed cleavage assay (HBV RNaseH): − (No inhibition detected at 100 μM)

Structure (SMILES): Cc1ccc(CC2C(=O)N(O)C(=O)c3ccccc32)cc1 (stereo not shown) [Compound 80]
- EC50 (HBV replication): > 20 µM
- HBV replication inhibition (qualitative) (HBV replication): − (No inhibition detected at 20 μM)
- Inhibition of HBV RNaseH, Oligonucleotide directed cleavage assay (HBV RNaseH): − (No inhibition detected at 100 μM)
- log reduction at 5 µM (HSV-1; [1]): < 1
- IC50 (human RNaseH1; Table 1, quantitative values): > 100 µM

Structure (SMILES): O=C1Cn2c(cc3cc(F)ccc32)C(=O)N1O [Compound 241]
- HBV replication inhibition (qualitative) (HBV replication): − (No inhibition detected at 20 μM)
- Inhibition of HBV RNaseH, Oligonucleotide directed cleavage assay (HBV RNaseH): − (No inhibition detected at 100 μM)
- log reduction at 5 µM (HSV-1; [1]): < 1

Structure (SMILES): O=C1Cn2c(cc3ccccc32)C(=O)N1O [Compound 236]
- HBV replication inhibition (qualitative) (HBV replication): − (No inhibition detected at 20 μM)
- Inhibition of HBV RNaseH, Oligonucleotide directed cleavage assay (HBV RNaseH): − (No inhibition detected at 100 μM)
- log reduction at 5 µM (HSV-1; [1]): < 1

Structure (SMILES): COc1ccc2c(c1)cc1n2CC(=O)N(O)C1=O [Compound 238]
- HBV replication inhibition (qualitative) (HBV replication): − (No inhibition detected at 20 μM)
- Inhibition of HBV RNaseH, Oligonucleotide directed cleavage assay (HBV RNaseH): − (No inhibition detected at 100 μM)
- log reduction at 5 µM (HSV-1; [1]): < 1
